We go through 5 molecules from paper PMC3000800 (Bioorganic & medicinal chemistry letters, 2010).

Data set [1] concerns the target native α7 nAChR in rat brain membranes (Rattus norvegicus, UniProt Q05941). The experiment in a line: biochemical. It counts as binding. Conditions: for inhibition at 10 µM: read-out: Percent binding/inhibition, α7 receptor (selectivity study).
A further data set concerns the target neuronal α4β2 nAChRs (Rattus norvegicus, UniProt P09483+P12390). The experiment in a line: biochemical. Conditions: read-out: Percent binding/inhibition, neuronal α4β2.
Another data set has as its target T1, human 5HT3 receptor (Homo sapiens, UniProt P46098).
T1 sequence (P46098 24-478): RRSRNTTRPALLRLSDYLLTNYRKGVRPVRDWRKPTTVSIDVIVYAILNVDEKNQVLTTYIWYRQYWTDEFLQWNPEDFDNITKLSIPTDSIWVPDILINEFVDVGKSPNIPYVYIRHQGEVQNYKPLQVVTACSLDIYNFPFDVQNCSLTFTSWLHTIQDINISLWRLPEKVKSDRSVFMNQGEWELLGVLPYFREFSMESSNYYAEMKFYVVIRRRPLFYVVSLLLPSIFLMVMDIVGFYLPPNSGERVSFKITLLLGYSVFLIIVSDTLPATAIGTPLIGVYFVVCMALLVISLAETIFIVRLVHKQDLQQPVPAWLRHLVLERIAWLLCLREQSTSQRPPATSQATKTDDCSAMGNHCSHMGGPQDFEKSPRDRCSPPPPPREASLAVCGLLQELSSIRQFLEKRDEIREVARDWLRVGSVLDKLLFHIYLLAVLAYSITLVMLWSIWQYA
Briefly: biochemical. Conditions: read-out: Percent binding/inhibition, 5HT3 receptor.

The target of a further data set is muscle-type nAChR (Homo sapiens, UniProt P02708+P07510+Q07001). It counts as binding.
Data set [2] deals with DFP-induced seizure-like behaviors. Conditions: mouse, in vivo.
A further data set has as its target human α7 nAChR (Homo sapiens, UniProt P36544). The experiment in a line: cell-based.
For data set [3] the following is noted: male, C57Bl/6, mouse, in vivo, ip, 10 mg/kg.

native α7 nAChR in rat brain membranes, sequence (Q05941 23-502): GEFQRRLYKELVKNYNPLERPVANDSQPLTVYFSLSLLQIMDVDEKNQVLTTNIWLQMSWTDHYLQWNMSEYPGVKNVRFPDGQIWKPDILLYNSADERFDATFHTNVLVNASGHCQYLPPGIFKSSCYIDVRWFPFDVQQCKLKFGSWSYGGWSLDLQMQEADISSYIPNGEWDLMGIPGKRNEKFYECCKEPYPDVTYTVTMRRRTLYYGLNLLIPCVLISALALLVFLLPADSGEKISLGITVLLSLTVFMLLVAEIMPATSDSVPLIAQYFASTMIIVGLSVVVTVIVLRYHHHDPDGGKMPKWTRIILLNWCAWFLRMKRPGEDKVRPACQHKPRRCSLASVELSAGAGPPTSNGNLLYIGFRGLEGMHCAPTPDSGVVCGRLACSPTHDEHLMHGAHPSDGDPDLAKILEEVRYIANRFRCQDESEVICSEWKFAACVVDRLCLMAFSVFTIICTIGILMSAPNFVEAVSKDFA
neuronal α4β2 nAChRs, sequence (P09483 31-630): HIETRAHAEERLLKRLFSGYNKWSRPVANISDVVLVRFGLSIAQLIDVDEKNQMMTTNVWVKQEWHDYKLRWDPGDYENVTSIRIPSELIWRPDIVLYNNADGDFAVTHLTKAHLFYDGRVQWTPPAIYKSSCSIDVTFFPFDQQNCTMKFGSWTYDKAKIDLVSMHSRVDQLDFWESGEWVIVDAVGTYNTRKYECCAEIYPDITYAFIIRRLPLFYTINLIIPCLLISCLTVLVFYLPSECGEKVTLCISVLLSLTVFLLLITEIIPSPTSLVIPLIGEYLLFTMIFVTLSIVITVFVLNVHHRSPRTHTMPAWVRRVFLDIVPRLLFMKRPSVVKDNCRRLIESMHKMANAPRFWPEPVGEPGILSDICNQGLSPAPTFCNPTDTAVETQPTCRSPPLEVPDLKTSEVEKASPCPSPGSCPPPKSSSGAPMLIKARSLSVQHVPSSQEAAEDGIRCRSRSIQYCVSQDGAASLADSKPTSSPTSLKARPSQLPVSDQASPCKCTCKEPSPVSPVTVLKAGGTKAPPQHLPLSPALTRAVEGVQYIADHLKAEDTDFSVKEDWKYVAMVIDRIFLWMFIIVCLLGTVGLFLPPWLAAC
neuronal α4β2 nAChRs, sequence (P12390 25-500): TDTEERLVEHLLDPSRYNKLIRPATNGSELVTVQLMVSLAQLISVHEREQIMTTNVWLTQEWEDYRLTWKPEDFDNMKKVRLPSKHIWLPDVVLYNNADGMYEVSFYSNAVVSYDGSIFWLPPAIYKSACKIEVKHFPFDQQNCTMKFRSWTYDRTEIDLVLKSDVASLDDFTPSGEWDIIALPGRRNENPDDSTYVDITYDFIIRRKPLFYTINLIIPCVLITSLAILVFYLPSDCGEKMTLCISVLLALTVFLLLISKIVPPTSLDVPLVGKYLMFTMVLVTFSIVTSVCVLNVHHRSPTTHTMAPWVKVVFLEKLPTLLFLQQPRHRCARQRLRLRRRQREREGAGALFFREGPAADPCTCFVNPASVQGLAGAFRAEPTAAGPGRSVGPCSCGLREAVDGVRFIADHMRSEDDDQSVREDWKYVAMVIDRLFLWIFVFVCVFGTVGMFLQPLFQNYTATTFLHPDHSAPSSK
muscle-type nAChR, sequence (P02708 21-457): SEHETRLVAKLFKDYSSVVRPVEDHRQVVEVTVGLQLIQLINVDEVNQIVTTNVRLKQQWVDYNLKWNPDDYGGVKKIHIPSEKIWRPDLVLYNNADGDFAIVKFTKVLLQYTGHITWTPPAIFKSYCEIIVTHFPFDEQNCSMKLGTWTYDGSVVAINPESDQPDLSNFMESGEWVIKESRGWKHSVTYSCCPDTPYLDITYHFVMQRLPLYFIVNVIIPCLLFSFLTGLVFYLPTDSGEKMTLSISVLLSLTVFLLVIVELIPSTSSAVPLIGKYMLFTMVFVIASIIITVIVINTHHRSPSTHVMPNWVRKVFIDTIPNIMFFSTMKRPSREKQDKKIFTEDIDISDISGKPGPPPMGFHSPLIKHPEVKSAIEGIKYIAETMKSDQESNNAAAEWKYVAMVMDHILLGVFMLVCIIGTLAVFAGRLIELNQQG
muscle-type nAChR, sequence (P07510 23-517): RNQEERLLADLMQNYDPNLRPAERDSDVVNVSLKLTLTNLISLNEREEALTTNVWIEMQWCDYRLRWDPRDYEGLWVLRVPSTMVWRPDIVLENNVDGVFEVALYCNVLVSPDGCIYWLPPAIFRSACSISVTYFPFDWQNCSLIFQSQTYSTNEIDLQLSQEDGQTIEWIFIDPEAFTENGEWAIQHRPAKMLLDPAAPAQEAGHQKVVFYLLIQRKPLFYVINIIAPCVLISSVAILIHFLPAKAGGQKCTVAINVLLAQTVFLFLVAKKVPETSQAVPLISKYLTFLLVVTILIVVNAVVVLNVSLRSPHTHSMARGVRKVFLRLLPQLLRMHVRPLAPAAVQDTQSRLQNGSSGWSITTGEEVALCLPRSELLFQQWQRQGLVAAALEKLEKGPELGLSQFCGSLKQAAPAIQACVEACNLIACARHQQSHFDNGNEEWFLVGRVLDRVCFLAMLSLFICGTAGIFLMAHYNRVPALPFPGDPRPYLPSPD
muscle-type nAChR, sequence (P11230 24-501, further chain): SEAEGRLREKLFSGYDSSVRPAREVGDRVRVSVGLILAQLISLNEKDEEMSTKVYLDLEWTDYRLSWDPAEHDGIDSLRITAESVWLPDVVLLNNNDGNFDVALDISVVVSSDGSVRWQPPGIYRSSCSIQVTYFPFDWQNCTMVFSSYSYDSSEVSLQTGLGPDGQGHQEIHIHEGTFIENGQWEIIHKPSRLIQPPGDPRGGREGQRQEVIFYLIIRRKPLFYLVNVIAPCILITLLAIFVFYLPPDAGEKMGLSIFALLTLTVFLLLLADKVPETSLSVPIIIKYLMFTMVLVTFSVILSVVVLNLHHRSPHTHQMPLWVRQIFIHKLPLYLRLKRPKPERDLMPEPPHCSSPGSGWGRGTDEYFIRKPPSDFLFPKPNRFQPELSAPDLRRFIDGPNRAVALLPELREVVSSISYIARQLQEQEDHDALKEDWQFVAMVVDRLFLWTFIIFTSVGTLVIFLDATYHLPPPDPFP
muscle-type nAChR, sequence (Q07001 22-517): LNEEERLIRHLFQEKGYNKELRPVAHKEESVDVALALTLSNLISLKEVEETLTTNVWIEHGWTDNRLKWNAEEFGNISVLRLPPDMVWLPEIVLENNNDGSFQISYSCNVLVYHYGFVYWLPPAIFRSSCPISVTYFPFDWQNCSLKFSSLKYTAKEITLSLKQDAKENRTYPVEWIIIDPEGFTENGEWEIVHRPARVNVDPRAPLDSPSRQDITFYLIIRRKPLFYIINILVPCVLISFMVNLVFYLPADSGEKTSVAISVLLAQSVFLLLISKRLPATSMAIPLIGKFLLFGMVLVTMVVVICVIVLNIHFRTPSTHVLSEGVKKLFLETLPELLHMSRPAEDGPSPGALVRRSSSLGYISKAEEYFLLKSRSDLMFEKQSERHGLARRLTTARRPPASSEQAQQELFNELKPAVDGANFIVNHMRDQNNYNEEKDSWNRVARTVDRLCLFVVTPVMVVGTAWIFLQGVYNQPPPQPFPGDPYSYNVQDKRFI
human α7 nAChR, sequence (P36544 23-502): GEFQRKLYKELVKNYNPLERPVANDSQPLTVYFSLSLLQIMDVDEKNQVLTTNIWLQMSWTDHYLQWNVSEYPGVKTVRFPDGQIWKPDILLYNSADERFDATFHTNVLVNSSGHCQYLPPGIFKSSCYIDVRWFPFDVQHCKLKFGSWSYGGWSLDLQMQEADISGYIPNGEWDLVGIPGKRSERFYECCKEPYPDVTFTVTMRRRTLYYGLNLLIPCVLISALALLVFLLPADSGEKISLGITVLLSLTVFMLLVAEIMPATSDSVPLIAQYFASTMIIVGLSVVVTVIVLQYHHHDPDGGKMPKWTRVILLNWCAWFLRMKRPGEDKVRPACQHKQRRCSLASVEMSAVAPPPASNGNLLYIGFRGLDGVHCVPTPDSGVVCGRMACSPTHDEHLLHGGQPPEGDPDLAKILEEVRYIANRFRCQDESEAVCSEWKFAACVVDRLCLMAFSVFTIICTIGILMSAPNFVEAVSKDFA

In the case of `CCCc1c(C(=O)NC2CCN(C)CC2)cnn1-c1ccccc1` [8h], the “binding affinity to the α7 nAChR (in words)” value in data set [1] is given as “completely abolished the binding affinity”.
The same measure, in the same setting: with `CCCc1c(C(=O)NC2CCNCC2)cnn1-c1ccccc1` [8i] the entry was “completely abolished the binding affinity”.
`O=C(NCC1CCN(Cc2ccccc2)CC1)c1cn(Cc2cccc(Cl)c2)nn1` [compound 7]: the inhibition at 10 µM on neuronal α4β2 nAChRs is 18.8%; on human 5HT3 receptor, 8.4%; in data set [1] it was 82.5%. The “binding to the muscle-type nAChR” value on muscle-type nAChR is on record as “no detectable binding”.
The IC50 is the midpoint of a concentration-inhibition curve. A higher IC50 goes with a need for much substance. As for `CN(CC1CCN(Cc2ccccc2)CC1)C(=O)c1cn(Cc2ccccc2Cl)nn1` [compound 7i], in data set [2], the Normalized % neuroprotection came to 93.4%, the Normalized % seizure is listed as 6.6% and the “Seizure score (mean ± SD)” value is given as 0.6 ± 1.3. Moreover, the IC50 at human α7 nAChR came out at 3.8 µM.
For the molecule `CCCc1c(C(=O)NC2CCN(Cc3ccccc3)CC2)cnn1-c1ccccc1` [compound 8], in data set [2], the Normalized % neuroprotection is 91.2%, the Normalized % seizure is given as 8.8% and the “Seizure score (mean ± SD)” value is 0.8 ± 1.3. The same molecule returned a concentration in brain in data set [3] of 9 µM. Also, the inhibition at 10 µM at neuronal α4β2 nAChRs amounted to 1.3%. Further, on human 5HT3 receptor, the inhibition at 10 µM was 14.3%. Moreover, in data set [1], it took 2.9 µM to reach half-maximal inhibition (IC50) and the inhibition at 10 µM amounted to 82.5%. The molecule further had an IC50 at human α7 nAChR of 18.9 µM. Besides, the “binding to the muscle-type nAChR” value on muscle-type nAChR is reported as “no detectable binding”.
